Test results: US9642819B2, “Low dosage serotonin 5-HT2A receptor agonist to suppress inflammation” (BOARD OF SUPERVISORS OF LOUISIANA STATE UNIVERSITY AND …, priority 2008, dated 2017)
pIC50, pKi: −log10 of the molar value.

Columns and labels:
5-HT2A receptor = conditions: read-out: Affinity=Ki for the receptor; cited from earlier work
VCAM-1 gene expression = experiment: TNF-α induced VCAM-1 gene expression in rat primary aortic endothelial cells; assay type: cell-based; conditions: 10 pM, 60 minutes prior to TNF-alpha 10 ng/ml
Experimental: (§1) Experiments were conducted to analyze for the effect of 5-HT2A receptor activation on proinflammatory marker expression in other cell types. Human neuroblastoma cells (SHSY5Y) and rat glioma cells (C6) can be obtained from the American Type Culture Collection (Manassas, Va.), but were provided Purdue University. The cells were grown in DMEM+10% FBS. DMEM was made and provided by the Cell and Molecular Core of the Mentoring in Cardiovascular Biology COBRE center at LSUHSC-NO. FBS was purchased from Invitrogen (Carlsbad, Calif.). Primary rat aortic endothelial cells were prepared fresh and provided by the Cell and Molecular Core of the Mentoring in Cardiovascular Biology COBRE center at LSUHSC-NO. Cells were tested at passages 3-4. Cells were grown in endothelial cell growth medium (Cell Applications, Inc.). Primary rat bronchoaveolar macrophage cells were obtained by lung lavage from rats and used at day 3 or 4 post plating in DMEM+10% FBS.
(§2) All treatments with 5-HT2A receptor agonists occurred 1 hour prior to the addition of TNF-alpha (10 ng/ml) or LPS (100 ng or 1 mg) depending on the experiment. All RNA isolations, cDNA synthesis, QPCR gene expression assays examining ICAM1, VCAM1, and IL6, and data analysis were performed as described above in Example 1, except the primers were different for the human cell experiment. […]

ICAM-1 gene expression = experiment: TNF-α induced ICAM-1 gene expression in human neuroblastoma cells (SHSY5Y); assay type: cell-based
Experimental: as §1, §2

[1] = test system: Nitric Oxide Synthetase (NOS) activity; experiment: NOS activity: nitrite levels in culture medium of RASM cells after TNF-α; assay type: cell-based, rat; conditions: 1 nM pretreatment for 24 hours, TNF-α 10 ng/ml 24 hours
Experimental: Nitric Oxide Synthetase (NOS) Activity. NOS activity was determined by detection of nitrite levels in the cell culture medium following (R)-DOI/TNF-α treatments utilizing the Nitrate Detection kit from Assay Designs (Ann Arbor, Mich.) following the manufacturers protocols. Absorbances were detected at 539 nm on a […] SpectraMax M2 plate reader.
A key participant in inflammatory processes is NOS activity (Guzik et al., 2003). NOS activity can regulate NF-kB activation (Ckless et al., 2007), and cytokine pathway-activated NF-kB can transcriptionally regulate iNOS gene expression (Guo et al., 2007). To examine the effects of 5-HT2A receptor activation on this component of inflammatory mechanisms, primary RASM cells were used to examine the ability of 1 nM (R)-DOI to block TNF-α mediated increases in nitrite levels.
As an indicator of NOS activity, nitrite levels were measured in the cell culture media after treatments and are shown in FIG. 6 as % control. […] Pretreatment with 1 nM (R)-DOI for 24 hours blocked TNF-α mediated increases in nitrite accumulation (DOI+T).

IL-6 gene expression = experiment: TNF-α induced IL-6 gene expression in primary rat aortic smooth muscle cells; assay type: cell-based; conditions: RASM passage 4, media with FBS, 24 h pretreatment, TNF-α 10 ng/ml, read-out: IC50 for proinflammatory gene expression inhibition for IL-6
Experimental: RASM cells and treatment. Rat aortic smooth muscle (RASM) cells were isolated from adult 180 g male Sprague-Dawley rats and provided by the Cell and Molecular Core Facility in the Department of Pharmacology at LSUHSC-NO. Isolated RASM cells were grown in M-199 media containing 10% fetal bovine serum (Gibco), 100 units/mL penicillin, and 100 µg/mL streptomycin, and incubated at 37° C. in 5% CO2. Cells for all assays were used between passages 3 and 5. Prior to treatments, cells were grown in M-199 media with 10% fetal bovine serum (FBS) until 30-50% confluent. […]
RNA isolation and Quantitative Realtime-PCR. […]
The sequences of primers used are: 5-HT2AR (5-hydroxytryptamine 2A receptor): forward primer 5′-[…]-3′ (SEQ ID NO: 1), reverse primer, 5′[…]-3′ (SEQ ID NO: 2); ICAM-1 (intracellular adhesion molecule 1): forward primer, 5′-[…]-3′ (SEQ ID NO: 3, reverse primer, 5′-[…]-3′ (SEQ ID NO: 4); VCAM-1 (vascular adhesion molecule 1): forward primer, 5′-[…]-3′ (SEQ ID NO: 5), reverse primer, 5′-[…]-3′ (SEQ ID NO: 6); IL-6 (interleukin-6): forward primer, 5′-[…] […]-3′ (SEQ ID NO: 7), reverse primer, 5′-[…]-3′ (SEQ ID NO: 8); and cyclophillin B (control amplicon): forward primer, 5′-[…]-3′ (SEQ ID NO: 9), reverse primer, 5′-[…]-3′ (SEQ ID NO: 10). […] Quantitative determination of gene expression levels using a 2-step cycling protocol was performed on a MyIQ-5 Cycler (Bio-Rad, Hercules Calif.). […]

SMILES: COc1cc(C[C@@H](C)N)c(OC)cc1I [(R)-DOI, (R)-1-(2,5-dimethoxy-4-iodophenyl)-2-aminopropane]
- pKi (5-HT2A receptor): 9.30
- effect on TNF-alpha induced increase in VCAM-1 gene expression in aortic endothelial cells (VCAM-1 gene expression): less potent
- effect on ICAM-1 gene expression in human neuroblastoma cells (ICAM-1 gene expression): blocked
- pIC50 (ICAM-1 gene expression; Homo sapiens, Neuroblastoma cell, 1 hour prior to TNF-α 10 ng/ml, read-out: IC50 for ICAM-1 gene expression inhibition in human neuroblastoma cells): ~9.10
- effect on TNF-α mediated increases in nitrite accumulation [1]: blocked
- pIC50 (IL-6 gene expression): 10.99
